Values after ≈ are worked out from the molar mass of the structure shown.
Experiments:
5-Lipoxygenase = molecular target: T1, 5-Lipoxygenase (Rattus norvegicus, UniProt P12527); assay: RBL-1 5-Lipoxygenase; format: biochemical; settings: for IC50: Table 4, first part
T1 construct: Rat basophilic leukemia (RBL-1) cells were sonicated and centrifuged at 125000 xg; endogenous in cells; host or cells: RBL-1 (rat basophilic leukemia) cells, 125000 xg supernatant of sonicate
T1 sequence (P12527 1-673): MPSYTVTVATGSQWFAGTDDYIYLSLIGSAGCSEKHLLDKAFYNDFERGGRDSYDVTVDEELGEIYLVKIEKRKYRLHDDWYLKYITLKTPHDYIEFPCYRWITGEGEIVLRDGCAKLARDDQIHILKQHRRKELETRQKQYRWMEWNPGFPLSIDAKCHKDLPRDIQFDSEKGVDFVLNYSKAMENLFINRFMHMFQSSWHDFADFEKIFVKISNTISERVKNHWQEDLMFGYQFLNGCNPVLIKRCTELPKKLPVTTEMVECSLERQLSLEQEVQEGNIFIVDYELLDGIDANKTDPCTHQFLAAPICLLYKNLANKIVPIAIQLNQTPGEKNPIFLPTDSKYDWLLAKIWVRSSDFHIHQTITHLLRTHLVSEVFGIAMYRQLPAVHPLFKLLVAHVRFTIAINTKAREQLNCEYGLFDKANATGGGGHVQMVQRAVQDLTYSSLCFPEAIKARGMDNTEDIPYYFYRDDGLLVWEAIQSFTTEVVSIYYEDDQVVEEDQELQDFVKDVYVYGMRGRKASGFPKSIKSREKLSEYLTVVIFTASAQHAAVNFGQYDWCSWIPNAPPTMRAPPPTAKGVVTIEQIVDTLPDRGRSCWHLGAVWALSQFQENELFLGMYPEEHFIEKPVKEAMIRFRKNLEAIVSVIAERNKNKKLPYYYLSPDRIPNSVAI
Procedure: Rat basophilic leukemia (RBL-1) cells were sonicated and centrifuged at 125000 xg. The resulting supernatant fraction was incubated with arachidonic acid (labelled with ^14 C) to convert a portion of it to ^14 C-5(S)-hydroxyicosatetraenoic acid (5-HETE). Compounds being evaluated as inhibitors of 5-Lipoxygenase were added prior to the addition of arachidonic acid. 5-HETE was isolated by extraction and paper chromatography, and quantitated by determining the amount of radioactivity (cpm) associated with 5-HETE.
Reference: Egan, R. W., Tischler, A. M. Baptista, E. H., Ham, E. A., Soderman, D. D., and Gale, P. H., Advances in Prostaglandin, Thromboxane and Leukotriene Research 11 151 (1983), (Samuelson, B., Ramwell, P. W., and Paoletti, R. (eds.), Raven Press, N.Y.

[1] = system: tracheal chain of sensitized guinea pigs; assay: Antigen Challenge 'in vitro' Assay (egg albumin contraction of sensitized guinea pig tracheal chain)
Procedure: Male guinea pigs weighing 300-350 g were sensitized by injecting (I.P.) 0.5 ml of a suspension containing 0.4 mg of egg albumin (Ovalbumin, Grade V, Sigma Chemical Co.) and 4.0 g aluminum hydroxide in 19.6 ml of saline. Two weeks were permitted for sensitization to occur.
Three sensitized guinea pigs were stunned and exsanguinated. The tracheas were removed, freed of adhering tissue and divided longitudinally by cutting through the cartilaginous tissue directly opposite the muscle insertion. Each opened trachea was then transected between every second cartilage. Four of the cut sections were tied together, end to end, in a series with No. 7 silk thread ensuring that the tracheal muscles were all in the same vertical plane. Thus, each chain consisted of tissue from three different animals.
The chain so formed was then suspended under 1 g of tension (by silk ties at each end) in a 20 ml organ bath containing 10 ml of modified* Krebs-Henseleit buffer solution gassed with 95% O2 and 5% CO2 at 37° C. Mepyramine (0.55 μg/ml) and indomethacin (2.67 μg/ml) were added to the buffer to avoid the contribution of histamine receptors and cyclooxygenase products to the contraction. To record responses one end of the tracheal chain was attached to a Gould-Statham UC-2 force displacement transducer which was connected to a Beckman Type R-dynograph.The preparations were allowed to equilibrate for one hour during which time the tissues were automatically washed (10 ml volume displacement) every 6 minutes.
After the equilibration period the tissues were primed with methacholine (3 μg/ml; 1.5×10^-5 M), washed and allowed to recover to baseline. The tissues were treated again with a second dose of methacholine, washed, allowed to return to baseline and washed for an additional hour.
Two chains were used as a control. These were incubated in a concentration of egg albumin sufficient to induce an average contraction of 50-80% of the methacholine response.
Each compound to be tested was added to two other baths (at a final concentration in each bath of 10 μg/ml) 15 minutes prior to challenging the fresh chains with egg albumin.
The response of the challenged tissue was expressed as a percentage of the methacholine maximum. The % inhibition for each compound was then calculated. Compounds which at 10 μg/ml (final conc.) inhibited the egg albumin response by 50% or more were retested at a lower concentration.

[2] = system: Mouse peritoneal macrophages; assay: Mouse Macrophage Assay (leukotriene C4 / PGE2 / 6-keto PGF1α formation, zymosan stimulated); format: cell-based; settings: Table 4, first part
Procedure: Mouse peritoneal macrophages were treated sequentially with arachidonic acid (labelled with tritium); the compound being evaluated as an inhibitor, and a stimulator (zymosan). Metabolites derived from arachidonic acid PGE2 6-keto PH-F1α and leukotriene C4) were separated from the incubation medium by extraction and chromatography, and then quantitated by determining the amount of radioactivity (cpm) associated with each of them. […] (This protocol is identical to that described in the reference except that the radioactivity herein associated with the LTC4 was determined by counting an aliquot of the final aqueous solution directly rather than chromatographing it first).
Reference: Humes, J. L. et al., J. Biol. Chem. 257, 1591-4, (1982).

Row | SMILES | IC50 (5-Lipoxygenase) | In Vitro Antigen Challenge Test % Inhibition ([1]; 0.3 μg (μg/ml)) | In Vitro Antigen Challenge Test % Inhibition ([1]; 1 μg (μg/ml)) | In Vitro Antigen Challenge Test % Inhibition ([1]; 10 μg (μg/ml)) | IC50 [2] | inhibition at 0.05 µg/mL (5-Lipoxygenase; at 0.05 μg/ml, read-out: RBL-1, % at stated concentration)
1 | O=c1ccc2nc3ccccc3sc-2c1 [Test No. 4] | 46.9 nM | 42% | 77% | 100% | 0.1 µg/mL (≈ 0.469 µM) | 
2 | O=c1c(Cl)cc2nc3ccccc3sc-2c1Cl [Test No. 5] |  |  |  |  |  | 65%
3 | O=c1ccc2nc3ccccc3sc-2c1Cl [drawing 26] | 40.4 nM |  | 44% | 100% | 0.2 µg/mL (≈ 0.807 µM) | 
